23 molecules from patent publication US20240018161A1, “MODULATORS OF CYSTIC FIBROSIS TRANSMEMBRANE CONDUCTANCE REGULATOR” (VERTEX PHARMACEUTICALS INCORPORATED, priority 2020, published 2024) can be followed below.

In this test the target is CFTR-mediated chloride transport in human intestinal epithelial enteroid cells (Homo sapiens, UniProt P13569). Kind of test: Membrane potential dye, Enteroid Assay A. It is filed as cell-based. The conditions noted are these: for EC50: read-out: Ent. A EC50. As for the experimental part: Base medium (ADF+++) consisted of Advanced DMEM/Ham's F12, 2 mM Glutamax, 10 mM HEPES, […] penicillin/streptomycin.
Bath 1 Buffer consisted of 1 mM MgCl2, 160 mM NaCl, 4.5 mM KCl, 10 mM HEPES, 10 mM Glucose, 2 mM CaCl2.
Chloride Free Buffer consisted of 1 mM Magnesium Gluconate, 2 mM Calcium Gluconate, 4.5 mM Potassium Gluconate, 160 mM Sodium Gluconate, 10 mM HEPES, 10 mM Glucose.
Bath1 Dye Solution consisted of Bath 1 Buffer, 0.04% Pluronic F127, 20 μM Methyl Oxonol, 30 μM CaCCinh-A01, 30 μM Chicago Sky Blue.
Chloride Free Dye Solution consisted of Chloride Free Buffer, 0.04% Pluronic F127, 20 μM Methyl Oxonol, 30 μM CaCCinh-A01, 30 μM Chicago Sky Blue.
3. Enteroid Cell Harvesting and Seeding
Cells were recovered in cell recovery solution, collected by centrifugation at 650 rpm for 5 min at 4° C., resuspended in TryPLE and incubated for 5 min at 37° C. Cells were then collected by centrifugation at 650 rpm for 5 min at 4° C. and resuspended in IEMM containing 10 μM ROCK inhibitor (RI).
4. Membrane Potential Dye, Enteroid Assay A
Briefly, cells were washed 5 times in Bath 1 Buffer. Bath 1 Dye Solution was added, and the cells were incubated for 25 min at room temperature. Following dye incubation, cells were washed 3 times in Chloride Free Dye Solution. Chloride transport was initiated by addition of Chloride Free Dye Stimulation Solution and the fluorescence signal was read for 15 min. […] Chloride transport was then expressed as a percentage of the chloride transport following treatment with 3 μM N-[(6-amino-2-pyridyl)sulfonyl]-6-(3-fluoro-5-isobutoxy-phenyl)-2-[(4S)-2,2,4-trimethylpyrrolidin-1-yl]pyridine-3-carboxamide, 3 μM (R)-1-(2,2-difluorobenzo[d][1,3]dioxol-5-yl)-N-(1-(2,3-dihydroxypropyl)-6-fluoro-2-(1-hydroxy-2-methylpropan-2-yl)-1H-indol-5-yl)cyclopropanecarboxamide and 300 nM acute N-[2,4-bis(1,1-dimethylethyl)-5-hydroxyphenyl]-1,4-dihydro-4-oxoquinoline-3-carboxamide triple combination control (% Activity).

[1] abbreviates: enteroid cells incubated with test compound 18-24 hours, acute 10 μM forskolin and 300 nM N-[2,4-bis(1,1-dimethylethyl)-5-hydroxyphenyl]-1,4-dihydro-4-oxoquinoline-3-carboxamide.
Setting [2] is: percentage of chloride transport of triple combination control (3 μM N-[(6-amino-2-pyridyl)sulfonyl]-6-(3-fluoro-5-isobutoxy-phenyl)-2-[(4S)-2,2,4-trimethylpyrrolidin-1-yl]pyridine-3-carboxamide based).

Like-named read-outs stand apart in the source and are kept apart here. Bounds are passed on as bounds.

Sequence of CFTR-mediated chloride transport in human intestinal epithelial enteroid cells (P13569 with tags, fused parts or gaps DEL508-508): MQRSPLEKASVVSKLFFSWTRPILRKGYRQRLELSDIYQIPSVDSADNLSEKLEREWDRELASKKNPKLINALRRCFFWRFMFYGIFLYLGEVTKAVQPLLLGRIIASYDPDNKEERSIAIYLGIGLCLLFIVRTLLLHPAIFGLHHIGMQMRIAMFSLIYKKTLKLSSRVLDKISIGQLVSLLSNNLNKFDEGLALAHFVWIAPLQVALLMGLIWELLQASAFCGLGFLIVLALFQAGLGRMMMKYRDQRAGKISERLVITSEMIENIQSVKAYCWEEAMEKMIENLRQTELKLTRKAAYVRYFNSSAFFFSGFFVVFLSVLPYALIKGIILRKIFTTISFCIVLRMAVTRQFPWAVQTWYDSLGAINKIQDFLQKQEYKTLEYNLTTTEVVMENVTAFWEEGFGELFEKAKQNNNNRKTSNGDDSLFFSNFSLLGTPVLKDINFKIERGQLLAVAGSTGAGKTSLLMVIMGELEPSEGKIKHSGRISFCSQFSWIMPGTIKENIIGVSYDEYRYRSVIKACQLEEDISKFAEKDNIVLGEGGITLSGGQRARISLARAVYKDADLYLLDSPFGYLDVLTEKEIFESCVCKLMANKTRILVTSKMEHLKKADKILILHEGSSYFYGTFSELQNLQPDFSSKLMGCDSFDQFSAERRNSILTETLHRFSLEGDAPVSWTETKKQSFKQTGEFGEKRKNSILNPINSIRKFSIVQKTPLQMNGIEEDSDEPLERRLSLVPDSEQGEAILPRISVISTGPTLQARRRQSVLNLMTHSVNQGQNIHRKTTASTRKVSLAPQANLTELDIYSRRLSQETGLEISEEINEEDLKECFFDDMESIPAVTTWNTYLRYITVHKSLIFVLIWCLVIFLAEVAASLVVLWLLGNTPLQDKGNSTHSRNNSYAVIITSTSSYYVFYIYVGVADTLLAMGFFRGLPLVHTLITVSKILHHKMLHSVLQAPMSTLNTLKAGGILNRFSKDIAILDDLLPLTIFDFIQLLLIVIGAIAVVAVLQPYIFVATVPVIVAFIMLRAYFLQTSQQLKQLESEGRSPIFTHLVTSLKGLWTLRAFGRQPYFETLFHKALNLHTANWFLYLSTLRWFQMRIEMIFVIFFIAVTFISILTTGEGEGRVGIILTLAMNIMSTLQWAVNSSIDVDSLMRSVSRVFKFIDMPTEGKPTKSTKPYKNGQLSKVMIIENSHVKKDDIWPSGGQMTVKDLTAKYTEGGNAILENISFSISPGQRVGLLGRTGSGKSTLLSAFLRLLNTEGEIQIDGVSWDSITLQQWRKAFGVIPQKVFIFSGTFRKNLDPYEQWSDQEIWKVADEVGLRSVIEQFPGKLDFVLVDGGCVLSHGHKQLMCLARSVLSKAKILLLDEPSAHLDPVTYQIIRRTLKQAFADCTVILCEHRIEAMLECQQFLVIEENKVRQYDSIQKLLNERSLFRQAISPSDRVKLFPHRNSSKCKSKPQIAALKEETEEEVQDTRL

For the molecule `Cc1cccc(C)c1-c1cc2nc(n1)NS(=O)(=O)c1cccc(c1)C(=O)N1CCCN(C(=O)OC(C)(C)C)CC(C1)O2` (stereo not shown) [Compound 359], for the setting “Enteroid Assay A”, the “Ent. A Max Activity (%)” value is reported as “++ (++ is 30-60%)” and the EC50 lay within 1000 to 3000 nM.
As for `Cc1cccc(C)c1-c1cc2nc(n1)NS(=O)(=O)c1cccc(c1)C(=O)N1CCN(Cc3ccccc3)C[C@H](C1)O2` [Compound 67, (16R)-18-Benzyl-12-(2,6-dimethylphenyl)-15-oxa-8λ^6-thia-1,9,11,18,22-pentaazatetracyclo[14.4.1.13,7.110,14]tricosa-3(23),4,6,10(22),11,13-hexaene-2,8,8-trione], under setting [1], the EC50 is less than 1000 nM. In addition, the “Ent. A Max Activity (%)” value under setting [2] was “+++ (+++ is >60%)”.
Consider `Cc1cccc(C)c1-c1cc2nc(n1)NS(=O)(=O)c1cccc(c1)C(=O)N1C[C@@H](CN(C3CC4(CCCC4)C3)C[C@@H]1CC(C)C)O2` [Compound 97, (16R,20S)-12-(2,6-Dimethylphenyl)-20-(2-methylpropyl)-18-{spiro[3.4]octan-2-yl}-15-oxa-8λ^6-thia-1,9,11,18,22-pentaazatetracyclo[14.4.1.13,7.110,14]tricosa-3(23),4,6,10(22),11,13-hexaene-2,8,8-trione], for which, where the note is “Enteroid Assay A”, the “Ent. A Max Activity (%)” value is reported as “++ (++ is 30-60%)” and the EC50 was less than 1000 nM.
For `Cc1cccc(C)c1-c1cc2nc(n1)NS(=O)(=O)c1cccc(c1)C(=O)N1CCN(C3CCC4(CC3)COC4)C[C@H](C1)O2` [Compound 41, (16R)-12-(2,6-Dimethylphenyl)-18-{2-oxaspiro[3.5]nonan-7-yl}-15-oxa-8λ^6-thia-1,9,11,18,22-pentaazatetracyclo[14.4.1.13,7.110,14]tricosa-3(23),4,6,10,12,14(22)-hexaene-2,8,8-trione] the same measures were “+++ (+++ is >600%)” and less than 1000 nM.
For `Cc1cccc(C)c1-c1cc2nc(n1)NS(=O)(=O)c1cccc(c1)C(=O)N1CC(C)(C)CC(O2)C1CC(C)C` (single isomer, unassigned) [Compound 232, 18-(2,6-Dimethylphenyl)-5,5-dimethyl-22-(2-methylpropyl)-2-oxa-14λ^6-thia-7,15,17,20-tetraazatetracyclo[14.3.1.13,7.19,13]docosa-1(20),9(21),10,12,16,18-hexaene-8,14,14-trione], where the note is “Enteroid Assay A”, the EC50 is less than 1000 nM.
For `Cc1cccc(C)c1-c1cc2nc(n1)NS(=N)(=O)c1cccc(c1)C(=O)N1CCNCC(C1)O2` (stereo not shown) [Compound 242, 12-(2,6-Dimethylphenyl)-8-imino-15-oxa-8λ^6-thia-1,9,11,18,22-pentaazatetracyclo[14.4.1.13,7.110,14]tricosa-3,5,7(23),10,12,14(22)-hexaene-2,8-dione], the “Ent. A Max Activity (%)” value (Enteroid Assay A) was “+ (+ is <30%)”.
`Cc1cccc(C)c1-c1cc2nc(n1)NS(=O)(=O)c1cc(ccn1)C(=O)N1Cc3ccccc3C(C1)O2` (stereo not shown) [Compound 343]: the EC50 under setting [1] lay within 1000 to 3000 nM. Moreover, under setting [2], the “Ent. A Max Activity (%)” value is reported as “++ (++ is 30-60%)”.
The corresponding values for `Cc1cccc(C)c1-c1cc2nc(n1)NS(=O)(=O)c1cccc(c1)C(=O)N1CCc3ccccc3C(C1)O2` (stereo not shown) [Compound 220, 12-(2,6-Dimethylphenyl)-15-oxa-8λ^6-thia-1,9,11,26-tetraazapentacyclo[14.8.1.13,7.110,14.017,22]heptacosa-3(27),4,6,10(26),11,13,17,19,21-nonaene-2,8,8-trione] are less than 1000 nM and “+++ (+++ is >60%)”.
The corresponding values for `CNc1ccc(CN2CCN3C(=O)c4cccc(c4)S(=O)(=O)Nc4nc(cc(-c5c(C)cccc5C)n4)OC[C@H]3C2)cn1` [Compound 265] are 3000 to 30000 nM and “++ (++ is 30-60%)”.
As for `Cc1cccc(C)c1-c1cc2nc(n1)NS(=O)(=O)c1cccc(c1)C(=O)N1CCN(C3CCC4CC43)C[C@H](C1)O2` (stereo partly shown) [Compound 15], where the note is “Enteroid Assay A”, the “Ent. A Max Activity (%)” value is “+++ (+++ is >600%)” and the EC50 was less than 1000 nM.
In the case of `Cc1cccc(C)c1-c1cc2nc(n1)NS(=O)(=O)c1cccc(c1)C(=O)N1C[C@@H](CN(CCC(C)(C)C)[C@@H](CC(C)C)C1)O2` [Compound 155], for the setting “Enteroid Assay A”, the “Ent. A Max Activity (%)” value is “+++ (+++ is >600%)” and the EC50 was less than 1000 nM.
`Cc1cccc(C)c1-c1cc2nc(n1)NS(=O)(=O)c1cccc(c1)C(=O)N1CCN(Cc3ccn[nH]3)C[C@@H]1CO2` [Compound 288]: the “Ent. A Max Activity (%)” value under setting [2] is given as “+ (+ is <300%)”.
For the molecule `Cc1cccc(C)c1-c1cc2nc(n1)NS(=O)(=O)c1cccc(c1)C(=O)N1CCN(C(=O)CCN3CCCC3)CC1CO2` (stereo not shown) [Compound 308], the “Ent. A Max Activity (%)” value under setting [2] is “+ (+ is <300%)”.
Regarding `Cc1cccc(C)c1-c1cc2nc(n1)NS(=O)(=O)c1cccc(c1)C(=O)N1CCN(C3CCCC3)C[C@H](C1)O2` [Compound 6, (16R)-18-cyclopentyl-12-(2,6-dimethylphenyl)-8,8-dioxo-15-oxa-8λ^6-thia-1,9,11,18,22-pentazatetracyclo[14.4.1.13,7.110,14]tricosa-3,5,7(23),10(22),11,13-hexaen-2-one], where the note is “Enteroid Assay A”, the “Ent. A Max Activity (%)” value is listed as “+++ (+++ is >600%)” and the EC50 is less than 1000 nM.
Consider `Cc1cccc(C)c1-c1cc2nc(n1)NS(=O)(=O)c1cccc(c1)C(=O)N1C[C@@H](CN(C3CCC(F)(F)CC3)[C@@H](CC(C)C)C1)O2` [Compound 110, (16R,19S)-18-(4,4-Difluorocyclohexyl)-12-(2,6-dimethylphenyl)-19-(2-methylpropyl)-15-oxa-8λ^6-thia-1,9,11,18,22-pentaazatetracyclo[14.4.1.13,7.110,14]tricosa-3(23),4,6,10(22),11,13-hexaene-2,8,8-trione], for which, for the setting “Enteroid Assay A”, the “Ent. A Max Activity (%)” value is “+++ (+++ is >600%)” and the EC50 was less than 1000 nM.
The corresponding values for `Cc1cccc(C)c1-c1cc2nc(n1)NS(=O)(=O)c1cccc(c1)C(=O)N1CCN(C3CCC3)C[C@H](C1)O2` [Compound 27] are “++ (++ is 30-60%)” and less than 1000 nM.
As to `Cc1cccc(C)c1-c1cc2nc(n1)NS(=O)(=O)c1cccc(c1)CCC(=O)N1CCC(CC1)O2` [Compound 352], the “Ent. A Max Activity (%)” value under setting [2] is “+ (+ is <300%)”.
For `Cc1cccc(C)c1-c1cc2nc(n1)NS(=O)(=O)c1cccc(c1)C(=O)N1Cc3ccccc3C[C@H]1CO2` [Compound 212, (12S)-17-(2,6-Dimethylphenyl)-14-oxa-21λ^6-thia-3,18,20,27-tetraazapentacyclo[20.3.1.115,19.03,12.05,10]heptacosa-1(26),5(10),6,8,15(27),16,18,22,24-nonaene-2,21,21-trione], the EC50 under setting [1] was less than 1000 nM. For the same molecule, the “Ent. A Max Activity (%)” value under setting [2] is on record as “++ (++ is 30-60%)”.
The corresponding values for `Cc1cccc(C)c1-c1cc2nc(n1)NS(=O)(=O)c1cccc(c1)C(=O)N1CCNC[C@H](C1)O2` [Compound 2, (16R)-12-(2,6-Dimethylphenyl)-15-oxa-8λ^6-thia-1,9,11,18,22-pentaazatetracyclo[14.4.1.13,7.110,14]tricosa-3,5,7(23),10,12,14(22)-hexaene-2,8,8-trione] are 3000 to 30000 nM and “+++ (+++ is >60%)”.
Turning to `Cc1cccc(C)c1-c1cc2nc(n1)NS(=O)(=O)c1cccc(c1)C(=O)N1CCN(C(=O)OCc3ccccc3)C[C@H](O2)[C@H]1C` (single isomer, unassigned) [Compound 112], for the setting “Enteroid Assay A”, the “Ent. A Max Activity (%)” value is recorded as “+++ (+++ is >600%)” and the EC50 is less than 1000 nM.
With `Cc1cccc(C)c1-c1cc2nc(n1)NS(=O)(=O)c1cccc(c1)C(=O)N1CC(C)(C)CC(O2)C1CC(C)C` (single isomer, unassigned) [Compound 233, 18-(2,6-dimethylphenyl)-5,5-dimethyl-22-(2-methylpropyl)-2-oxa-14λ^6-thia-7,15,17,20-tetraazatetracyclo[14.3.1.13,7.19,13]docosa-1(20),9(21),10,12,16,18-hexaene-8,14,14-trione], the EC50 (Enteroid Assay A) is less than 1000 nM.
With `Cc1cccc(C)c1-c1cc2nc(n1)NS(=O)(=O)c1cccc(c1)C(=O)N1CCN(Cc3cccnc3)C[C@@H]1CO2` [Compound 282], the EC50 under setting [1] is 3000 to 30000 nM. In addition, under setting [2], the “Ent. A Max Activity (%)” value is “++ (++ is 30-60%)”.
As to `Cc1cccc(C)c1-c1cc2nc(n1)NS(=O)(=O)c1cccc(c1)C(=O)N1C[C@@H](CN(C)C[C@@H]1CC(C)C)O2` [Compound 99, (16R,20S)-12-(2,6-Dimethylphenyl)-18-methyl-20-(2-methylpropyl)-15-oxa-8λ^6-thia-1,9,11,18,22-pentaazatetracyclo[14.4.1.13,7.110,14]tricosa-3(23),4,6,10(22),11,13-hexaene-2,8,8-trione], under “Enteroid Assay A”, the “Ent. A Max Activity (%)” value is “++ (++ is 30-60%)” and the EC50 is less than 1000 nM.
